From US7057171B2, “Patch-clamping and its use in analyzing subcellular features” (priority 2001, dated 2006)

System: Cl^− channel
Assay: Whole-cell Cl^− current recording (patch-clamp) in rat cardiac myocytes
Type: cell-based
Settings: rat left ventricle cardiac myocytes, currents measured at plateau level, 30 μM nifedipine in bath
Source text: FIG. 4: Channels with 3 different current types were found. (A) A small-conductance inwardly rectifying channel (ClSIR). (B) A large-conductance inwardly rectifying channel (ClLIR). (C) An outwardly rectifying channel (ClOR). For each type of channel, a family of currents at different voltages (on the left side of the panels), current-voltage characteristics (on the top right side of the panels) and channel densities at different surface positions (on the bottom right side of the panels) are shown. The mean reversal potential was −31.2±2.4 mV (n=5) for (A)−31.8±3.4 mV (n=5) for (B) and −33.5±3.0 mV (n=4) for (C). (D) Calculated whole-cell current extrapolated from single-channel currents. (E) Current-voltage characteristics of experimental whole-cell currents obtained from 22 cells (black circles). […] Currents were measured at plateau level.
Left ventricle cells from the rat myocardium were isolated as previously described (Harding et al, J. Mol. Cell Cardiol. 20:635–647, 1988). Cells were allowed to attach to polystyrene cell culture dishes filled with bath solutions.
the bath solution contained (in mM) K-glutamate 120, KCl 25, MgCl2 2, CaCl2 1, EGTA 2, glucose 10 and HEPES 10, adjusted to pH 7.4 with CsOH. The pipette backfill solution contained N-methyl-D-glucamine-Cl (NMDG-Cl) 108, HEPES 5, glucose 5.5 and EGTA 1, adjusted to pH 7.4 with TEA-OH. […]

Row | Structure (SMILES) | Block of experimental whole-cell Cl^− currents (1 mM, n=5) | Block of experimental whole-cell Cl^− currents (300 μM, n=12)
1 | [Cd+2] [Cd^2+] | almost completely blocked | –
2 | CC(=O)Nc1ccc(C=Cc2ccc(N=C=S)cc2S(=O)(=O)O)c(S(=O)(=O)O)c1 [SITS, stilbene disulfonate] | – | partially blocked
